Assay results reported in PubChem BioAssay (NCI).
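Results reflect a 48-hour exposure of cells in 96-well plates to compound at five concentrations. Abbreviation: GI50, concentration required for 50% inhibition of growth. TGI is the concentration that stops growth completely.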

Key:
Assay in all cases: inhibition of tumour cell growth, NCI panel, 48 h
OVCAR-3 ovarian = system: OVCAR-3 ovarian
SF-268 CNS = system: SF-268 CNS
TK-10 renal = system: TK-10 renal
M14 melanoma = system: M14 melanoma
HT29 colon = system: HT29 colon
RPMI-8226 leukemia = system: RPMI-8226 leukemia
SNB-19 CNS = system: SNB-19 CNS
LOX IMVI melanoma = system: LOX IMVI melanoma
BT-549 breast = system: BT-549 breast
SK-MEL-2 melanoma = system: SK-MEL-2 melanoma
NCI/ADR-RES ovarian = system: NCI/ADR-RES ovarian
SK-MEL-5 melanoma = system: SK-MEL-5 melanoma
RXF 393 renal = system: RXF 393 renal
786-0 renal = system: 786-0 renal
OVCAR-5 ovarian = system: OVCAR-5 ovarian
NCI-H226 lung = system: NCI-H226 lung
U251 CNS = system: U251 CNS
MALME-3M melanoma = system: MALME-3M melanoma
SW-620 colon = system: SW-620 colon
HOP-62 NSCLC = system: HOP-62 NSCLC
HS 578T breast = system: HS 578T breast
HOP-92 NSCLC = system: HOP-92 NSCLC
NCI-H460 lung = system: NCI-H460 lung
NCI-H23 lung = system: NCI-H23 lung
MDA-MB-435 = system: MDA-MB-435
UACC-257 melanoma = system: UACC-257 melanoma
K-562 leukemia = system: K-562 leukemia
CAKI-1 renal = system: CAKI-1 renal
A498 renal = system: A498 renal
UO-31 renal = system: UO-31 renal
EKVX NSCLC = system: EKVX NSCLC
KM12 colon = system: KM12 colon
MDA-MB-468 breast = system: MDA-MB-468 breast
A549 NSCLC = system: A549 NSCLC
MOLT-4 leukemia = system: MOLT-4 leukemia
SF-295 CNS = system: SF-295 CNS
OVCAR-8 ovarian = system: OVCAR-8 ovarian
HCC-2998 colon = system: HCC-2998 colon
SR leukemia = system: SR leukemia
COLO 205 colon = system: COLO 205 colon
SK-MEL-28 melanoma = system: SK-MEL-28 melanoma
SK-OV-3 ovarian = system: SK-OV-3 ovarian
HCT-15 colon = system: HCT-15 colon
UACC-62 melanoma = system: UACC-62 melanoma
DU-145 prostate = system: DU-145 prostate
OVCAR-4 ovarian = system: OVCAR-4 ovarian
HCT-116 colon = system: HCT-116 colon
PC-3 prostate = system: PC-3 prostate
ACHN renal = system: ACHN renal
SNB-75 CNS = system: SNB-75 CNS
T-47D breast = system: T-47D breast
IGROV1 ovarian = system: IGROV1 ovarian
MDA-MB-231 breast = system: MDA-MB-231 breast
SN12C renal = system: SN12C renal
NCI-H522 lung = system: NCI-H522 lung
MCF7 breast = system: MCF7 breast
HL-60(TB) leukemia = system: HL-60(TB) leukemia
SF-539 CNS = system: SF-539 CNS

CN1CCN(c2ccc(Nc3nc(NCCNC(=O)c4ccc(C(F)(F)F)cc4)c4sccc4n3)cc2)CC1
GI50 (OVCAR-3 ovarian): 14.4 µM
TGI (OVCAR-3 ovarian): 32 µM
GI50 (SF-268 CNS): 11.1 µM
TGI (SF-268 CNS): 31.4 µM
GI50 (TK-10 renal): 16.6 µM
TGI (TK-10 renal): 30.8 µM
GI50 (M14 melanoma): 1880 nM
TGI (M14 melanoma): 3.63 µM
GI50 (HT29 colon): 3.53 µM
TGI (HT29 colon): 12.6 µM
GI50 (RPMI-8226 leukemia): 1880 nM
TGI (RPMI-8226 leukemia): 4.54 µM
GI50 (SNB-19 CNS): 14.2 µM
TGI (SNB-19 CNS): 27.5 µM
GI50 (LOX IMVI melanoma): 2660 nM
TGI (LOX IMVI melanoma): 8.84 µM
GI50 (BT-549 breast): 12.3 µM
TGI (BT-549 breast): 25.1 µM
GI50 (SK-MEL-2 melanoma): 15.7 µM
TGI (SK-MEL-2 melanoma): 29.7 µM
GI50 (NCI/ADR-RES ovarian): 16.1 µM
TGI (NCI/ADR-RES ovarian): 39.5 µM
GI50 (SK-MEL-5 melanoma): 2300 nM
TGI (SK-MEL-5 melanoma): 5.99 µM
GI50 (RXF 393 renal): 2670 nM
TGI (RXF 393 renal): 10.3 µM
GI50 (786-0 renal): 3.24 µM
TGI (786-0 renal): 13.1 µM
GI50 (OVCAR-5 ovarian): 15.1 µM
TGI (OVCAR-5 ovarian): 30.5 µM
GI50 (NCI-H226 lung): 14 µM
TGI (NCI-H226 lung): 29.8 µM
GI50 (U251 CNS): 3.54 µM
TGI (U251 CNS): 13.8 µM
GI50 (MALME-3M melanoma): 1770 nM
TGI (MALME-3M melanoma): 3.16 µM
GI50 (SW-620 colon): 12.7 µM
TGI (SW-620 colon): 26.4 µM
GI50 (HOP-62 NSCLC): 15.1 µM
TGI (HOP-62 NSCLC): 30.7 µM
GI50 (HS 578T breast): 4.19 µM
TGI (HS 578T breast): 23.2 µM
GI50 (HOP-92 NSCLC): 4.66 µM
TGI (HOP-92 NSCLC): 18.9 µM
GI50 (NCI-H460 lung): 13.3 µM
TGI (NCI-H460 lung): 28.7 µM
GI50 (NCI-H23 lung): 14.6 µM
TGI (NCI-H23 lung): 29.6 µM
GI50 (MDA-MB-435): 3.5 µM
TGI (MDA-MB-435): 11 µM
GI50 (UACC-257 melanoma): 1750 nM
TGI (UACC-257 melanoma): 3.39 µM
GI50 (K-562 leukemia): 2240 nM
TGI (K-562 leukemia): 8.8 µM
GI50 (CAKI-1 renal): 9.24 µM
TGI (CAKI-1 renal): 21.7 µM
GI50 (A498 renal): 17.1 µM
TGI (A498 renal): 31 µM
GI50 (UO-31 renal): 11.8 µM
TGI (UO-31 renal): 24.1 µM
GI50 (EKVX NSCLC): 13.9 µM
TGI (EKVX NSCLC): 29.2 µM
GI50 (KM12 colon): 14 µM
TGI (KM12 colon): 30.8 µM
GI50 (MDA-MB-468 breast): 2260 nM
TGI (MDA-MB-468 breast): 9.44 µM
GI50 (A549 NSCLC): 11.7 µM
TGI (A549 NSCLC): 30.8 µM
GI50 (MOLT-4 leukemia): 3.64 µM
TGI (MOLT-4 leukemia): 16.5 µM
GI50 (SF-295 CNS): 3.52 µM
TGI (SF-295 CNS): 13.6 µM
GI50 (OVCAR-8 ovarian): 10.8 µM
TGI (OVCAR-8 ovarian): 28 µM
GI50 (HCC-2998 colon): 4.55 µM
TGI (HCC-2998 colon): 15.5 µM
GI50 (SR leukemia): 1900 nM
TGI (SR leukemia): 5.21 µM
GI50 (COLO 205 colon): 7.4 µM
TGI (COLO 205 colon): 22.6 µM
GI50 (SK-MEL-28 melanoma): 2130 nM
TGI (SK-MEL-28 melanoma): 3.99 µM
GI50 (SK-OV-3 ovarian): 17.3 µM
TGI (SK-OV-3 ovarian): 33.4 µM
GI50 (HCT-15 colon): 3.33 µM
TGI (HCT-15 colon): 13.9 µM
GI50 (UACC-62 melanoma): 2010 nM
TGI (UACC-62 melanoma): 4.79 µM
GI50 (DU-145 prostate): 14.2 µM
TGI (DU-145 prostate): 27.9 µM
GI50 (OVCAR-4 ovarian): 13.6 µM
TGI (OVCAR-4 ovarian): 48.1 µM
GI50 (HCT-116 colon): 4.25 µM
TGI (HCT-116 colon): 15.2 µM
GI50 (PC-3 prostate): 10.4 µM
TGI (PC-3 prostate): 26.9 µM
GI50 (ACHN renal): 13.4 µM
TGI (ACHN renal): 27.9 µM
GI50 (SNB-75 CNS): 6.55 µM
TGI (SNB-75 CNS): 20.7 µM
GI50 (T-47D breast): 10.8 µM
TGI (T-47D breast): 31.1 µM
GI50 (IGROV1 ovarian): 12.9 µM
TGI (IGROV1 ovarian): 26 µM
GI50 (MDA-MB-231 breast): 3.72 µM
TGI (MDA-MB-231 breast): 14.4 µM
GI50 (SN12C renal): 12.9 µM
TGI (SN12C renal): 25.7 µM
GI50 (NCI-H522 lung): 4.21 µM
TGI (NCI-H522 lung): 16.7 µM
GI50 (MCF7 breast): 4.06 µM
TGI (MCF7 breast): 15.7 µM
GI50 (HL-60(TB) leukemia): 3.49 µM
TGI (HL-60(TB) leukemia): 15.8 µM
GI50 (SF-539 CNS): 2120 nM
TGI (SF-539 CNS): 4.6 µM

NS(=O)(=O)c1ccc(-n2cc(-c3cccc(NC(=O)c4ccc(Cl)c(C(F)(F)F)c4)c3)nn2)cc1
GI50 (NCI/ADR-RES ovarian): 80.7 µM
TGI (NCI/ADR-RES ovarian): > 100 µM
GI50 (MOLT-4 leukemia): 3.1 µM
TGI (MOLT-4 leukemia): > 100 µM
GI50 (SR leukemia): 3900 nM
TGI (SR leukemia): > 100 µM
GI50 (HCT-15 colon): 7.8 µM
TGI (HCT-15 colon): 68.5 µM
